Measurements: publication PMC8752837, “Structural basis of BAK activation in mitochondrial apoptosis initiation” (Nature Communications, 2022)
Blank lines part the entries; values can stand above or below the compound they belong to. Numbered stars: 1 amine (or outer) side, 2 acyl side, 3 side chain; on linkers, the order of the positions; unused ones are H or OH. Bridge positions count the residues as written; N and C are the ends. Square brackets hold non-standard residues; d marks the D form. Peptide text beside a SMILES is read from it. I, II: the chains in the order shown. Actinocin(9to1) = Cc1c2oc3c(C)ccc(C(=O)[*:1])c3nc-2c(C(=O)[*:2])c(N)c1=O; NMeV = CN[C@H](C(=O)O)C(C)C; Sar = CNCC(=O)O

How the values were obtained:
Human BAK-∆TM-His6 (BAK) = biological target: T1, Human BAK-∆TM-His6 (BAK) (Homo sapiens, UniProt Q16611); assay: Liposome permeabilization assay (ANTS/DPX dye release from LUVs): activation of WT BAK by BH3 peptides; type: biochemical; settings: 50 nM BAK, disubstituted BID-like BH3 peptides, Fig. 5c
T1 construct: C-terminus truncated recombinant human BAK containing C-terminal 6× histidine tag (MEAS-BAK); made in house; host or cells: E. coli T7 Express pLac I/Y
T1 sequence (Q16611 1-186 limits assumed): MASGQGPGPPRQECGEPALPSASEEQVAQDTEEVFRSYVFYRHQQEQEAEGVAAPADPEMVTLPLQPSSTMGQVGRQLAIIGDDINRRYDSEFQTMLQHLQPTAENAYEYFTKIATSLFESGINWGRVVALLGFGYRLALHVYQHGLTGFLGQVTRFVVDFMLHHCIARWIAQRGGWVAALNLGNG
Procedure: We performed liposome permeabilization assays as previously described[43]–[46]. […] We mixed the lipid film in ANTS/DPX solution by vortexing and sonication (~15 min) followed by extrusion through polycarbonate membrane of 2 μm pore size (Avanti Polar lipids) to generate homogenous large unilamellar vesicles (LUVs). We separated LUVs from free ANTS/DPX by S500 size exclusion chromatography and stored them at 4 °C in the dark. We prepared peptide and protein dilutions in 96-well black flat bottom plates (Costar) kept on ice. […] We quantified liposome permabilization by integrating area under curve (AUC) of normalized traces based on the Simpson’s equation, and analyzed that data in Excel and GraphPad Prism. AUC measurements reflect the kinetic and extent of liposome permeabilization and provide quantitative means for comparison between different experimental conditions (e.g., BAK mutants with gross or partial variation in activity).

WT tevBAK = biological target: T2, WT tevBAK (Homo sapiens, UniProt Q16611); assay: Isothermal titration calorimetry; type: binding; settings: for % bound: estimated as ([BID BH3] × 100)/(KD + [BID BH3])
T2 construct: To generate tevBAK (residues 22–186), we cleaved off the histidine tag with TEV protease; His tag (vector pNIC28-Bsa4) (N, cleaved yes); made in house; host or cells: E. coli T7 Express pLac I/Y
T2 sequence (Q16611 22-186): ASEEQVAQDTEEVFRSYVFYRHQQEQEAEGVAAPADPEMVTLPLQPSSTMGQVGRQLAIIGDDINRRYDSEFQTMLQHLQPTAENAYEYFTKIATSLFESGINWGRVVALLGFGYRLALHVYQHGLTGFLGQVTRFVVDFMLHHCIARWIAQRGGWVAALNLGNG
Procedure: Protein samples were exchanged into 20 mM HEPES, 100 mM NaCl and 1 mM TCEP prior to the experiment. Titrations were performed by first injecting 0.5 μl of 250 or 500 µM BID BH3 peptides into a solution of 20 or 50 µM BAK followed by additional 2 μl injections. […] Results were analyzed using Origin software (OriginLab) provided by MicroCal. Binding constants (KD) and thermodynamic parameters were calculated from the average of two or three individual titrations by fitting the data to a single site binding model using a nonlinear least-squares fitting algorithm.

MEAS-BAK-His6 = biological target: T3, MEAS-BAK-His6 (Homo sapiens, UniProt Q16611); assay: Surface plasmon resonance; type: binding; settings: 20 °C
T3 construct: C-terminus truncated recombinant human BAK containing C-terminal 6× histidine tag (MEAS-BAK); made in house; host or cells: E. coli T7 Express pLac I/Y
T3 sequence (Q16611 1-186 limits assumed): T1 sequence (Q16611 1-186 limits assumed)
Procedure: We conducted SPR experiments at 20 °C using a Pioneer FE optical biosensor (ForteBio) amd histidine-tagged MEAS-BAK-His6 immobilized on polycarboxylate hydrogel-coated gold chips preimmobilized with nitrilotriacetic acid (HisCap chips; ForteBio). We primed the chip in chelating buffer (10 mM HEPES pH 7.4, 150 mM NaCl, 50 µM EDTA, 0.005% Tween20) and preconditioned it at 10 µL/min with three 60 s injections of wash buffer (10 mM HEPES pH 8.3, 150 mM NaCl, 350 mM EDTA, 0.05% Tween20) and one 60 s injection of chelating buffer before charging with a 60 s injection of 500 µM NiCl2 in chelating buffer. After priming into binding buffer (20 mM HEPES pH 8.0, 200 mM NaCl, 1 mM TCEP, 0.01% Tween20), we injected BAK to achieve ~500 RU of captured protein. As reference cell, we charged one flow cell on the chip with Ni^2+ without adding protein. […] We included a series of buffer-only (blank) injections throughout the experiment to account for instrumental noise. […] We processed, double-referenced, solvent corrected, and analyzed the data using the software package Qdat (version 4.3.1.2, ForteBio). We determined kinetic rate constants and affinities by fitting the data to a 1:1 interaction model.

[1] = system: bak−/− bax−/− HCT116 cells; assay: Apoptosis initiated by actinomycin D and TRAIL + CHX in cells constitutively expressing BAK; type: cell-based, human; settings: AUC of SYTOX Green +ve counts/confluence, 0-48 hr, n = 3
Description: We enriched for GFP positive cell populations by up to four rounds of sorting. Cells were used in apoptosis assays. […]
and doxycycline (Dox)-inducible mC-BAK. d, Representative i mmunoblot for BID and sypro red staining of BCL2allKO HCT116 cells expressing V74A and D83A mC-BAK and BID from n=2 independent experiments. e, Representative immunoblot of bak-/- bax- […]
from n=2 independent experiments . GFP positive cells were sorted three and four times to achieve similar expression levels. […]
human TRAIL and cycloheximide (CHX).
Data are presented as mean + SD for one representative of n=2 experiments each of n=3 technical replicates. g, Experimental […]
BAK (mC-BAK) monitored for 48 hr by IncuCyte imaging uptake of cell-impermeable dye SYTOX Green. AUC for kinetic traces is included. At 48 hr, we quantified percentage of SYTOX Green +ve cells (%) by fluorescence activated cell sorting (FACS). Data are presented as mean + SD from one of n=3 experiments each of n=3

[2] = 25 °C, single site binding model

BAK activation or inhibition in liposome permeabilization (Human BAK-∆TM-His6 (BAK); listed as W(3)W(5) BID BH3 ligand): fully inhibitory
% of BAK bound to peptide under crystallization conditions (WT tevBAK; 10 mg/mL BAK (0.5 mM) and 2 mM peptide, from KD of […]): ~99.99%
ITC -T∆S (WT tevBAK; [2]): 5.53 ± 1.6 kcal/mol
ITC ∆G (WT tevBAK; [2]): -9.02 ± 0.10 kcal/mol
ITC ∆H (WT tevBAK; [2]): -14.55 ± 1.76 kcal/mol
% bound (WT tevBAK; [BID BH3] 1 μM, listed as W3W5 peptide): 80%
% bound (WT tevBAK; [BID BH3] 10 μM): 97.5%
SPR kd (MEAS-BAK-His6; 1:1 interaction model): 2.41±0.01 ×10-2 s-1
kon (MEAS-BAK-His6; 1:1 interaction model, read-out: SPR ka): 71900 ± 100 M⁻¹ s⁻¹
Kd (MEAS-BAK-His6; MEAS-BAK-His6 captured on Ni-NTA HisCap chip, three-fold peptide dilution series injected in triplicate, 1:1 interaction model, read-out: SPR KD): 336 ± 1 nM
SPR Rmax (MEAS-BAK-His6; ~500 RU captured BAK): 79.2±0.1 RU
Compound: Ac-EDIIRNIARHLAQWGDSMDRSW-NH2 [W(3)W(5)]
BAK activation or inhibition in liposome permeabilization (Human BAK-∆TM-His6 (BAK); listed as W(3)W(5) BID BH3 peptide): activates BAK efficiently at low doses, yet inhibits BAK at high doses

Compound: Cc1c2oc3c(C)ccc(C(=O)N[C@@H]4C(=O)N[C@H](C(C)C)C(=O)N5CCC[C@H]5C(=O)N(C)CC(=O)N(C)[C@@H](C(C)C)C(=O)O[C@@H]4C)c3nc-2c(C(=O)N[C@@H]2C(=O)N[C@H](C(C)C)C(=O)N3CCC[C@H]3C(=O)N(C)CC(=O)N(C)[C@@H](C(C)C)C(=O)O[C@@H]2C)c(N)c1=O [ActD] (I: T[dV]P[Sar][NMeV] / II: T[dV]P[Sar][NMeV]; ester I:1-I:C, II:1-II:C; linker I:N-II:N via Actinocin(9to1))
AUC ActD ([1]; V74A 3x 15% + ActD 0.5): 753.275
AUC ActD ([1]; V74A 3x 15% + ActD 2): 847.336
AUC ActD ([1]; V74A 3x 15% + qVD + ActD 2): 104.738
AUC ActD ([1]; V74A 4x 15% + ActD 0.5): 679.364
AUC ActD ([1]; V74A 4x 15% + ActD 2): 932.591
AUC ActD ([1]; V74A 4x 15% + qVD + ActD 0.5): 208.982
AUC ActD ([1]; V74A 4x 15% + qVD + ActD 2): 91.8357
AUC ActD ([1]; WT 4x 15% + ActD 0.5): 821.8
AUC ActD ([1]; WT 4x 15% + ActD 2): 1113.4
AUC ActD ([1]; WT 4x 15% + qVD + ActD 0.5): 162.981
AUC ActD ([1]; WT 4x 15% + qVD + ActD 2): 59.6671
